Like-named read-outs stand apart in the source and are kept apart here.
Columns and labels:
Type in all cases: cell-based
5-HT2A receptor = target: T1, 5-HT2A receptor (Homo sapiens, UniProt P28223); assay: R-SAT functional assay of the 5-HT2A receptor in NIH 3T3 cells (agonism and inverse agonism); settings: for 5-HT2A Receptor Negative Log EC50: Table 6, inverse agonism, 50 ng per well receptor DNA; for Negative Log EC50, inverse agonists at the 5-HT2A receptor: Table 5, inhibition of constitutive activity, mean of three dose response experiments ± standard error
T1 construct: expressed in transfected cells; host or cells: NIH 3T3 (mouse fibroblasts), transient transfection, PSI expression vector

5-HT2C receptor = target: T2, 5-HT2C receptor (Homo sapiens, UniProt P28335); assay: R-SAT functional assay of the 5-HT2C receptor (inverse agonism); settings: Table 6, 50 ng per well receptor DNA
T2 construct: expressed in transfected cells; PSI mammalian expression vector
T2 sequence (P28335 33-458): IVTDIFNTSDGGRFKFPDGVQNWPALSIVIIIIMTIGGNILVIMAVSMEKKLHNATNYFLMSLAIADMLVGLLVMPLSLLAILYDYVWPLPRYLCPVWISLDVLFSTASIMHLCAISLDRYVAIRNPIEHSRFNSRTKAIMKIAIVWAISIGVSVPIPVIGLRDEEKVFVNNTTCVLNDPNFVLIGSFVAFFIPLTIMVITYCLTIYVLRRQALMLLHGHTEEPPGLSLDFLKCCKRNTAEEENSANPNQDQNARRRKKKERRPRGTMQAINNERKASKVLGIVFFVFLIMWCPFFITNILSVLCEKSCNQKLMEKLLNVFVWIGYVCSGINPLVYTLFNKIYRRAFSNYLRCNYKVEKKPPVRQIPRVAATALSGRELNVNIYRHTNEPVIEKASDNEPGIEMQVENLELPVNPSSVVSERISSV

[1] = target: T3, α2-C10 adrenergic receptor (Homo sapiens, UniProt P08913); assay: Single Receptor Format amplification assay, alpha 2 C10; settings: for EC50: Table 3, 8-10 concentrations, 3-4 replicates, read-out: Agonist EC50 nM, α2-C10; for Max Response, α2-C10: relative to other ligands at the given receptor
T3 construct: expressed in transfected cells; host or cells: NIH 3T3
T3 sequence (P08913 1-465): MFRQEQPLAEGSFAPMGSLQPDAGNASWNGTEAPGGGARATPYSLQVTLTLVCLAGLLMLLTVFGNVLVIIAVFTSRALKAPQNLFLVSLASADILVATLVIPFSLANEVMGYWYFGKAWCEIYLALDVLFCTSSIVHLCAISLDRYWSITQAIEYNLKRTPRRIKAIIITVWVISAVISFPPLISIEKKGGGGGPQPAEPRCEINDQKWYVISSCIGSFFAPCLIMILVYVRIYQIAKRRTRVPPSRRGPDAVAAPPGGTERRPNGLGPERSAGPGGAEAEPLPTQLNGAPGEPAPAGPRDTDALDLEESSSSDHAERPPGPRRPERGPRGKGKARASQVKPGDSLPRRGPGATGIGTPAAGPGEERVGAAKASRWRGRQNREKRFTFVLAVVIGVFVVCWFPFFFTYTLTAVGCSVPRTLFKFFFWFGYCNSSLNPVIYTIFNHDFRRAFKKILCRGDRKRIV

[2] = target: T4, α2-C2 adrenergic receptor (Homo sapiens, UniProt P18089); assay: Single Receptor Format amplification assay, alpha 2 C2; settings: for EC50: Table 3, 8-10 concentrations, 3-4 replicates, read-out: Agonist EC50 nM, α2-C2
T4 construct: expressed in transfected cells; host or cells: NIH 3T3
T4 sequence (P18089 1-450): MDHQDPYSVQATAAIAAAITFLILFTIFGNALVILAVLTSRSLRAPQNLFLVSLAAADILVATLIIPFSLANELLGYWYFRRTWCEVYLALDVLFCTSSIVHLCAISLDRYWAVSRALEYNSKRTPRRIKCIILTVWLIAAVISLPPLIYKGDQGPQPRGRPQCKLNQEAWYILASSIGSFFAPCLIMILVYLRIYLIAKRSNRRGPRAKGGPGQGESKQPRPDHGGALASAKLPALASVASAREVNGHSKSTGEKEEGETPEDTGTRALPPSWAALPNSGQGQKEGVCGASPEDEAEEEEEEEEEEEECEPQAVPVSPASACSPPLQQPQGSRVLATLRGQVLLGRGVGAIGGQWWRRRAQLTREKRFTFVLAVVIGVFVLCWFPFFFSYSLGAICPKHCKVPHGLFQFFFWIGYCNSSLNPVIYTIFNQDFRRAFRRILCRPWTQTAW

[3] = target: T5, α2-C4 adrenergic receptor (Homo sapiens, UniProt P18825); assay: Single Receptor Format amplification assay, alpha 2 C4; settings: for EC50: Table 3, 8-10 concentrations, 3-4 replicates, read-out: Agonist EC50 nM, α2-C4; for Max Response, α2-C4: relative to other ligands at the given receptor
T5 construct: expressed in transfected cells; host or cells: NIH 3T3
T5 sequence (P18825 1-462): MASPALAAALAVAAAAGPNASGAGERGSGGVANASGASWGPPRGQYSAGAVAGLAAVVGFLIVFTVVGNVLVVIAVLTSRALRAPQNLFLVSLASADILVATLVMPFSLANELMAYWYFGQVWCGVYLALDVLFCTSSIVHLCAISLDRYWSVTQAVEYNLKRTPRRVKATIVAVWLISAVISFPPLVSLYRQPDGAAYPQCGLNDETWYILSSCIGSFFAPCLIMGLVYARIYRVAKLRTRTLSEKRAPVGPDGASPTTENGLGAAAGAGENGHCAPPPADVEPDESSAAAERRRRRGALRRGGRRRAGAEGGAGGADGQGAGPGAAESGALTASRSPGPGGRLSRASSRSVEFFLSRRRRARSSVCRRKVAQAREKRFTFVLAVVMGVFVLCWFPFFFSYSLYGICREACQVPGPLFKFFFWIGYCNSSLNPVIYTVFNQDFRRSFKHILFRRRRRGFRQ

[4] = compounds at 300-500 nM, 50 ng/well receptor DNA, inhibition from basal, referenced to ritanserin (90-100%), mean of duplicates
[5] = relative to other ligands at the given receptor
[6] = compounds at 300-500 nM, 50 ng/well receptor DNA, […], mean of duplicates

T1 sequence (P28223 whole entry): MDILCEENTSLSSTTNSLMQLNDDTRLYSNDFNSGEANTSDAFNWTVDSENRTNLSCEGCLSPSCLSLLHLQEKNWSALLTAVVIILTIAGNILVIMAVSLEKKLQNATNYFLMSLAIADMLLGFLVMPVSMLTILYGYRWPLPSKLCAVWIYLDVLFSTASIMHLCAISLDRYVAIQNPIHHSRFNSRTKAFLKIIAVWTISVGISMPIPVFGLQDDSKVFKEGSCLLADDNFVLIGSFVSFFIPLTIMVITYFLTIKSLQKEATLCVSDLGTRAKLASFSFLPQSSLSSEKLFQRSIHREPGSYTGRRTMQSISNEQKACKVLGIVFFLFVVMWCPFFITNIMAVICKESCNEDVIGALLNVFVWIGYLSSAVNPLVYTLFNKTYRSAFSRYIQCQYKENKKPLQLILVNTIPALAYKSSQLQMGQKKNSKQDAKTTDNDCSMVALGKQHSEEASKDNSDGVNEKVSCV

N[C@@H](Cc1c[nH]c2ccc(O)cc12)C(=O)O [5-hydroxy-Ltryptophan]
% INHIBITION, screen for inverse agonism at 5-HT2A receptors (5-HT2A receptor; [4]): 53%

CCNC(=O)N1CCN(CCCC(c2ccc(F)cc2)c2ccc(F)cc2)CC1 [Amperozide]
5-HT2C Receptor Negative Log EC50 (5-HT2C receptor): No Intrinsic

C=CCN1CCc2nc(N)sc2CC1 [BHT 920]
EC50 [1]: > 10000 nM | Max Response, α2-C10 [1]: +++ | Max Response, α2-C2 [2, 5]: +++ | EC50 [3]: > 10000 nM | Max Response, α2-C4 [3]: +++

CCN1CCc2nc(N)oc2CC1 [BHT 933]
EC50 [1]: > 10000 nM | Max Response, α2-C10 [1]: ++ | EC50 [2]: > 10000 nM | Max Response, α2-C2 [2, 5]: +++

O=C(CCCN1CCC(O)(c2ccc(Br)cc2)CC1)c1ccc(F)cc1 [Bromperidol]
5-HT2C Receptor Negative Log EC50 (5-HT2C receptor): No Intrinsic

CN(C)CCCSc1ccccc1NC(=O)/C=C/c1ccccc1 [CINANSERIN]
% INHIBITION, screen for inverse agonism at 5-HT2A receptors (5-HT2A receptor; [4]): 75%

CCN(CC)CCCN1c2ccccc2Sc2ccc(Cl)cc21 [Chlorproethizene]
5-HT2A Receptor Negative Log EC50 (5-HT2A receptor): 7.70 ± 0.33 | 5-HT2C Receptor Negative Log EC50 (5-HT2C receptor): <5.0

OCCN1CCN(CC/C=C2/c3ccccc3Sc3ccc(C(F)(F)F)cc32)CC1 [Cis-Flupentixol]
Negative Log EC50, inverse agonists at the 5-HT2A receptor (5-HT2A receptor): 8.04 ± 0.10 molar | 5-HT2A Receptor Negative Log EC50 (5-HT2A receptor): 8.04 ± 0.10 | % INHIBITION, screen for inverse agonism at 5-HT2A receptors (5-HT2A receptor; [6]): 45% | 5-HT2C Receptor Negative Log EC50 (5-HT2C receptor): No Intrinsic

Clc1cccc(Cl)c1N=C1NCCN1 [Clonidine]
Max Response, α2-C4 [3]: ++

Cc1cccc([C@H](C)c2cnc[nH]2)c1C [Dexmedetomidine]
Max Response, α2-C10 [1]: ± | Max Response, α2-C2 [2]: 2/+++ | Max Response, α2-C4 [3]: ±

O=C1NCN(c2ccccc2)C12CCN(CCCC(c1ccc(F)cc1)c1ccc(F)cc1)CC2 [Fluspirilene]
% INHIBITION, screen for inverse agonism at 5-HT2A receptors (5-HT2A receptor; [4]): 57%

N=C(N)NC(=O)Cc1c(Cl)cccc1Cl [Guanfacine]
Max Response, α2-C4 [3]: ±

CC(C)NCC(O)c1ccc(O)c(O)c1 (stereo not shown) [Isoproterenol]
Max Response, α2-C4 [3]: +

O=C(c1ccc(F)cc1)C1CCN(CCn2c(=O)[nH]c3ccccc3c2=O)CC1 [KETANSERIN]
% INHIBITION, screen for inverse agonism at 5-HT2A receptors (5-HT2A receptor; [4]): 82%

CN1CCN(C2=Nc3ccccc3Oc3ccc(Cl)cc32)CC1 [Loxapine]
% INHIBITION, screen for inverse agonism at 5-HT2A receptors (5-HT2A receptor; [4]): 77%

CSc1ccc2c(c1)C(N1CCN(C)CC1)Cc1ccccc1S2 (stereo not shown) [METHIOTHEPIN]
% INHIBITION, screen for inverse agonism at 5-HT2A receptors (5-HT2A receptor): 79%

NCCC1CCCC(CCN)N1 (stereo not shown) [Mdl 26,630 3HCl]
% INHIBITION, screen for inverse agonism at 5-HT2A receptors (5-HT2A receptor; [4]): 75%

CC1CCN(CCCC(=O)c2ccc(F)cc2)CC1 [Melperone]
5-HT2C Receptor Negative Log EC50 (5-HT2C receptor): No Intrinsic

CN1CCCCC1CCN1c2ccccc2Sc2ccc([S+](C)[O-])cc21 (stereo not shown) [Mesioridazine]
5-HT2A Receptor Negative Log EC50 (5-HT2A receptor): 7.00 ± 0.30 | 5-HT2C Receptor Negative Log EC50 (5-HT2C receptor): No Intrinsic

Cc1ccc(C2(O)CCN(CCCC(=O)c3ccc(F)cc3)CC2)cc1 [Moperone]
5-HT2C Receptor Negative Log EC50 (5-HT2C receptor): No Intrinsic

NC[C@H](O)c1ccc(O)c(O)c1 [Norepinephrine]
EC50 [2]: 7200 nM | Max Response, α2-C2 [2, 5]: ++ | EC50 [3]: 2 nM | Max Response, α2-C4 [3]: +

CN1CCN(C2Cc3ccccc3Sc3ccc(Cl)cc32)CC1.O=C(O)/C=C\C(=O)O (stereo not shown) [Octoclothepin]
5-HT2A Receptor Negative Log EC50 (5-HT2A receptor): 9.74 ± 0.98 | % INHIBITION, screen for inverse agonism at 5-HT2A receptors (5-HT2A receptor; [6]): 76%

Cc1cc(C(C)(C)C)c(O)c(C)c1CC1=NCCN1 [Oxymetazoline]
Max Response, α2-C4 [3]: +

Cc1nc2ccccn2c(=O)c1CCN1CCC(C(=O)c2ccc(F)cc2)CC1 [PIRENPIRONE]
% INHIBITION, screen for inverse agonism at 5-HT2A receptors (5-HT2A receptor; [4]): 92%

COc1cc2nc(N3CCN(C(=O)c4ccco4)CC3)nc(N)c2cc1OC [Prazocin]
Max Response, α2-C10 [1]: ± | Max Response, α2-C4 [3]: ++

CN(C)CCCN1c2ccccc2Sc2ccccc21 [Promazine]
5-HT2C Receptor Negative Log EC50 (5-HT2C receptor): Agonist

CN(C)CCCN1c2ccccc2Sc2cccnc21 [Prothypendyl]
5-HT2A Receptor Negative Log EC50 (5-HT2A receptor): 6.60 ± 0.44 | 5-HT2C Receptor Negative Log EC50 (5-HT2C receptor): Agonist

C1COC(NC(C2CC2)C2CC2)=N1 [Rilmenidine]
Max Response, α2-C10 [1]: ± | Max Response, α2-C2 [2, 5]: ± | EC50 [3]: 480 nM | Max Response, α2-C4 [3]: +

O=C(CCCN1CCC2(CC1)C(=O)NCN2c1ccccc1)c1ccc(F)cc1 [Spiperone]
% INHIBITION, screen for inverse agonism at 5-HT2A receptors (5-HT2A receptor; [4]): 82% | 5-HT2C Receptor Negative Log EC50 (5-HT2C receptor): No Intrinsic

CCN1CCCC1CNC(=O)c1cc(S(N)(=O)=O)ccc1OC (stereo not shown) [Sulpiride]
5-HT2C Receptor Negative Log EC50 (5-HT2C receptor): No Intrinsic

CN1CCN(CC/C=C2/c3ccccc3Sc3ccc(S(=O)(=O)N(C)C)cc32)CC1 [Thiothixene]
5-HT2C Receptor Negative Log EC50 (5-HT2C receptor): No Intrinsic

OCCN1CCN(CC/C=C2\c3ccccc3Sc3ccc(C(F)(F)F)cc32)CC1 [Trans-Flupentixol]
Negative Log EC50, inverse agonists at the 5-HT2A receptor (5-HT2A receptor): 6.77 ± 0.21 molar | 5-HT2A Receptor Negative Log EC50 (5-HT2A receptor): 6.77 ± 0.21 | 5-HT2C Receptor Negative Log EC50 (5-HT2C receptor): 5.55 ± 0.37

O=C(CCCN1CCC(O)(c2cccc(C(F)(F)F)c2)CC1)c1ccc(F)cc1 [Triflouperidol]
% INHIBITION, screen for inverse agonism at 5-HT2A receptors (5-HT2A receptor): 96%

Nc1cc(Cl)c(N=C2NCCN2)c(Cl)c1 [p-NH2-Clonidine]
Max Response, α2-C10 [1]: ± | Max Response, α2-C4 [3]: ±

Cc1nc2sccn2c(=O)c1CCN1CCC(=C(c2ccc(F)cc2)c2ccc(F)cc2)CC1 [ritanserin]
% INHIBITION, screen for inverse agonism at 5-HT2A receptors (5-HT2A receptor; [4]): 90% | intrinsic activity at the 5-HT2A receptor (inverse agonism) (5-HT2A receptor; receptor signaling relative to baseline (no drug)): inverse agonist

JL-18
5-HT2C Receptor Negative Log EC50 (5-HT2C receptor): 6.09 ± 0.45

— patent publication US20090156501A1, “IDENTIFICATION OF LIGANDS BY SELECTIVE AMPLIFICATION OF CELLS TRANSFECTED WITH RECEPTORS” (ACADIA PHARMACEUTICALS, INC., priority 1999, published 2009)
